# Results published in publication PMC11844072, “Novel 5,6-dichlorobenzimidazole derivatives as dual BRAFWT and BRAFV600E inhibitors: design, synthesis, anti-cancer activity and molecular dynamics simulations” (BMC Chemistry, 2025).
# What was measured:
# Test in all cases: NCI 60 single concentration growth inhibition
# Format in all cases: cell-based, human
# ACHN = conditions: Renal cancer; for inhibition at 10 µM: Homo sapiens, read-out: GI%; for GI%: 10 μM
# In short: (§1)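 Suspension cells such as leukaemia lines are fixed with 80% TCA added to settled cells, to 16% final, while other lines are fixed at 10% TCA. Both are then SRB-stained after 48 h of drug exposure at 37 °C.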
# OVCAR-5 = conditions: OVCAR-5, Ovarian cancer; for inhibition at 10 µM: Homo sapiens, read-out: GI%; for GI%: 10 μM
# In short: as §1
# RXF 393 = conditions: RXF 393, Renal cancer; for inhibition at 10 µM: Homo sapiens, read-out: GI%; for GI%: 10 μM
# In short: as §1
# CAKI-1 = conditions: CAKI-1, Renal cancer; for inhibition at 10 µM: Homo sapiens, read-out: GI%; for GI%: 10 μM
# In short: as §1
# HS 578T = conditions: Breast cancer; for inhibition at 10 µM: Homo sapiens, read-out: GI%; for GI%: 10 μM
# In short: as §1
# SR = conditions: Leukemia; for inhibition at 10 µM: Homo sapiens, read-out: GI%; for GI%: 10 μM
# In short: (§2)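 Growth measured by sulforhodamine B protein staining (515 nm) after 48 h drug exposure at 37 °C, following 24 h plating in RPMI 1640 with 5% FBS and 2 mM L-glutamine. Compounds first tested at one 10 µM dose, then five-dose series (10-fold or ½ log steps); percent growth relative to time-zero and untreated wells.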
# RPMI-8226 = conditions: RPMI-8226, Leukemia; for inhibition at 10 µM: Homo sapiens, read-out: GI%; for GI%: 10 μM
# In short: as §1
# UACC-62 = conditions: UACC-62, Melanoma; for inhibition at 10 µM: Homo sapiens, read-out: GI%; for GI%: 10 μM
# In short: as §1
# MOLT-4 = conditions: MOLT-4, Leukemia; for inhibition at 10 µM: Homo sapiens, read-out: GI%; for GI%: 10 μM
# In short: as §2
# MDA-MB-435 = conditions: MDA-MB-435, Melanoma; for inhibition at 10 µM: Homo sapiens, read-out: GI%; for GI%: 10 μM
# In short: as §1
# MDA-MB-468 = conditions: MDA-MB-468, Breast cancer; for inhibition at 10 µM: Homo sapiens, read-out: GI%; for GI%: 10 μM
# In short: as §1
# SK-OV-3 = conditions: SK-OV-3, Ovarian cancer; for inhibition at 10 µM: Homo sapiens, read-out: GI%; for GI%: 10 μM
# In short: as §1
# NCI-H23 = conditions: NCI-H23, Non-small cell lung cancer; for inhibition at 10 µM: Homo sapiens, read-out: GI%; for GI%: 10 μM
# In short: as §1
# KM12 = conditions: KM12, Colon cancer; for inhibition at 10 µM: Homo sapiens, read-out: GI%; for GI%: 10 μM
# In short: as §1
# EKVX = conditions: Non-small cell lung cancer; for inhibition at 10 µM: Homo sapiens, read-out: GI%; for GI%: 10 μM
# In short: as §1
# M14 = conditions: M14, Melanoma; for inhibition at 10 µM: Homo sapiens, read-out: GI%; for GI%: 10 μM
# In short: as §1
# HCT-116 = conditions: HCT-116, Colon cancer; for inhibition at 10 µM: Homo sapiens, read-out: GI%; for GI%: 10 μM
# In short: as §1
# UACC-257 = conditions: UACC-257, Melanoma; for inhibition at 10 µM: Homo sapiens, read-out: GI%; for GI%: 10 μM
# In short: as §1
# CCRF-CEM = conditions: Leukemia; for inhibition at 10 µM: Homo sapiens, read-out: GI%; for GI%: 10 μM
# In short: as §1
# 786-0 = conditions: 786-0, Renal cancer; for inhibition at 10 µM: Homo sapiens, read-out: GI%; for GI%: 10 μM
# In short: as §1
# T-47D = conditions: Breast cancer; for inhibition at 10 µM: Homo sapiens, T47D, read-out: GI%; for GI%: 10 μM
# In short: as §1
# HOP-62 = conditions: HOP-62, Non-small cell lung cancer; for inhibition at 10 µM: Homo sapiens, read-out: GI%; for GI%: 10 μM
# In short: as §1
compound,measurement,setting,value
"COc1ccc(C=NNC(=O)Cn2c(-c3ccc(OC)cc3)nc3cc(Cl)c(Cl)cc32)cc1 [Compound 10d, 2-(5,6-Dichloro-2-(4-methoxyphenyl)-1H-benzo[d]imidazol-1-yl)-N'-(4-methoxybenzylidene)acetohydrazide]",inhibition at 10 µM,ACHN,40.2%
same,inhibition at 10 µM,OVCAR-5,21.5%
same,inhibition at 10 µM,RXF 393,38.7%
same,inhibition at 10 µM,CAKI-1,52%
same,inhibition at 10 µM,HS 578T,34.6%
same,inhibition at 10 µM,SR,35.1%
same,inhibition at 10 µM,RPMI-8226,64.9%
same,inhibition at 10 µM,UACC-62,34.1%
same,inhibition at 10 µM,MOLT-4,68.9%
same,inhibition at 10 µM,MDA-MB-435,41.4%
same,inhibition at 10 µM,MDA-MB-468,81.8%
same,inhibition at 10 µM,SK-OV-3,30.4%
same,inhibition at 10 µM,NCI-H23,50.9%
same,inhibition at 10 µM,KM12,40.8%
same,inhibition at 10 µM,EKVX,76.8%
same,inhibition at 10 µM,M14,38.2%
same,inhibition at 10 µM,HCT-116,61.3%
same,inhibition at 10 µM,UACC-257,60.4%
same,inhibition at 10 µM,CCRF-CEM,40.2%
same,inhibition at 10 µM,786-0,29.1%
same,inhibition at 10 µM,T-47D,67.2%
same,inhibition at 10 µM,HOP-62,23.6%
"COc1ccc(-c2nc3cc(Cl)c(Cl)cc3n2CC(=O)NN=Cc2ccc(OC)c(O)c2)cc1 [Compound 10k, 2-(5,6-Dichloro-2-(4-methoxyphenyl)-1H-benzo[d]imidazol-1-yl)-N'-(3-hydroxy-4-methoxybenzylidene)acetohydrazide]",inhibition at 10 µM,ACHN,36.6%
same,inhibition at 10 µM,OVCAR-5,< 5%
same,inhibition at 10 µM,RXF 393,42.2%
same,inhibition at 10 µM,CAKI-1,48.2%
same,inhibition at 10 µM,HS 578T,27.4%
same,inhibition at 10 µM,SR,52.2%
same,inhibition at 10 µM,RPMI-8226,38.8%
same,inhibition at 10 µM,UACC-62,35.4%
same,inhibition at 10 µM,MOLT-4,76.1%
same,inhibition at 10 µM,MDA-MB-435,46.8%
same,inhibition at 10 µM,MDA-MB-468,71.2%
same,inhibition at 10 µM,SK-OV-3,< 5%
same,inhibition at 10 µM,NCI-H23,21.1%
same,inhibition at 10 µM,KM12,20.1%
same,inhibition at 10 µM,EKVX,56.4%
same,inhibition at 10 µM,M14,34.7%
same,inhibition at 10 µM,HCT-116,22%
same,inhibition at 10 µM,UACC-257,40.1%
same,inhibition at 10 µM,CCRF-CEM,43.8%
same,inhibition at 10 µM,786-0,25.3%
same,inhibition at 10 µM,T-47D,43.4%
same,inhibition at 10 µM,HOP-62,< 5%
"COC(=O)COc1ccc(C=NNC(=O)Cn2c(-c3ccc(OC)cc3)nc3cc(Cl)c(Cl)cc32)cc1 [Compound 10h, Methyl-2-(4-((2-(2-(5,6-dichloro-2-(4-methoxyphenyl)-1H-benzo[d]imidazol-1-yl)acetyl)hydrazono)methyl)phenoxy)acetate]",inhibition at 10 µM,ACHN,106%
same,inhibition at 10 µM,OVCAR-5,< 5%
same,inhibition at 10 µM,RXF 393,85.7%
same,inhibition at 10 µM,CAKI-1,5.89%
same,inhibition at 10 µM,HS 578T,72.2%
same,inhibition at 10 µM,SR,81.1%
same,inhibition at 10 µM,RPMI-8226,< 5%
same,inhibition at 10 µM,UACC-62,< 5%
same,inhibition at 10 µM,MOLT-4,53.2%
same,inhibition at 10 µM,MDA-MB-435,18.3%
same,inhibition at 10 µM,MDA-MB-468,177%
same,inhibition at 10 µM,SK-OV-3,< 5%
same,inhibition at 10 µM,NCI-H23,< 5%
same,inhibition at 10 µM,KM12,< 5%
same,inhibition at 10 µM,EKVX,< 5%
same,inhibition at 10 µM,M14,10.8%
same,inhibition at 10 µM,HCT-116,10.8%
same,inhibition at 10 µM,UACC-257,< 5%
same,inhibition at 10 µM,CCRF-CEM,28.1%
same,inhibition at 10 µM,786-0,112%
same,inhibition at 10 µM,T-47D,107%
same,inhibition at 10 µM,HOP-62,< 5%
"COc1ccc(-c2nc3cc(Cl)c(Cl)cc3n2CC(=O)NN=Cc2ccc(O)cc2)cc1 [Compound 10b, 2-(5,6-Dichloro-2-(4-methoxyphenyl)-1H-benzo[d]imidazol-1-yl)-N'-(4-hydroxybenzylidene)acetohydrazide]",inhibition at 10 µM,ACHN,33.4%
same,inhibition at 10 µM,OVCAR-5,< 5%
same,inhibition at 10 µM,RXF 393,41.2%
same,inhibition at 10 µM,CAKI-1,57.2%
same,inhibition at 10 µM,HS 578T,37.8%
same,inhibition at 10 µM,SR,64.7%
same,inhibition at 10 µM,RPMI-8226,62.1%
same,inhibition at 10 µM,UACC-62,38%
same,inhibition at 10 µM,MOLT-4,77.2%
same,inhibition at 10 µM,MDA-MB-435,39.1%
same,inhibition at 10 µM,MDA-MB-468,90.1%
same,inhibition at 10 µM,SK-OV-3,24.6%
same,inhibition at 10 µM,NCI-H23,20.3%
same,inhibition at 10 µM,KM12,26.3%
same,inhibition at 10 µM,EKVX,52.6%
same,inhibition at 10 µM,M14,39.1%
same,inhibition at 10 µM,HCT-116,45.1%
same,inhibition at 10 µM,UACC-257,23.9%
same,inhibition at 10 µM,CCRF-CEM,25.4%
same,inhibition at 10 µM,786-0,34.8%
same,inhibition at 10 µM,T-47D,56.4%
same,inhibition at 10 µM,HOP-62,19.3%
"COc1ccc(-c2nc3cc(Cl)c(Cl)cc3n2CC(=O)NN=Cc2ccc(OCC(=O)O)cc2)cc1 [Compound 10f, 2-(4-((2-(2-(5,6-Dichloro-2-(4-methoxyphenyl)-1H-benzo[d]imidazol-1-yl)acetyl)hydrazono)methyl)phenoxy)acetic acid]",inhibition at 10 µM,ACHN,< 5%
same,inhibition at 10 µM,OVCAR-5,< 5%
same,inhibition at 10 µM,RXF 393,< 5%
same,inhibition at 10 µM,CAKI-1,15%
same,inhibition at 10 µM,HS 578T,< 5%
same,inhibition at 10 µM,SR,< 5%
same,inhibition at 10 µM,RPMI-8226,< 5%
same,inhibition at 10 µM,UACC-62,< 5%
same,inhibition at 10 µM,MOLT-4,< 5%
same,inhibition at 10 µM,MDA-MB-435,< 5%
same,inhibition at 10 µM,MDA-MB-468,6.38%
same,inhibition at 10 µM,SK-OV-3,< 5%
same,inhibition at 10 µM,NCI-H23,< 5%
same,inhibition at 10 µM,KM12,< 5%
same,inhibition at 10 µM,EKVX,5.96%
same,inhibition at 10 µM,M14,< 5%
same,inhibition at 10 µM,HCT-116,< 5%
same,inhibition at 10 µM,UACC-257,< 5%
same,inhibition at 10 µM,CCRF-CEM,< 5%
same,inhibition at 10 µM,786-0,< 5%
same,inhibition at 10 µM,T-47D,< 5%
same,inhibition at 10 µM,HOP-62,< 5%
"2-(5-((2-(2-(5,6-Dichloro-2-(4-methoxyphenyl)-1H-benzo[d]imidazol-1-yl)acetyl)hydrazono)methyl)-2-methoxyphenoxy)acetic acid [Compound 10n]",GI%,ACHN,– (GI% < 5%)
same,GI%,OVCAR-5,– (GI% < 5%)
same,GI%,RXF 393,– (GI% < 5%)
same,GI%,CAKI-1,– (GI% < 5%)
same,GI%,HS 578T,6.21%
same,GI%,SR,9.65%
same,GI%,RPMI-8226,– (GI% < 5%)
same,GI%,UACC-62,9.71%
same,GI%,MOLT-4,10.12%
same,GI%,MDA-MB-435,– (GI% < 5%)
same,GI%,MDA-MB-468,12.44%
same,GI%,SK-OV-3,– (GI% < 5%)
same,GI%,NCI-H23,9.67%
same,GI%,KM12,– (GI% < 5%)
same,GI%,EKVX,– (GI% < 5%)
same,GI%,M14,– (GI% < 5%)
same,GI%,HCT-116,6.00%
same,GI%,UACC-257,– (GI% < 5%)
same,GI%,CCRF-CEM,– (GI% < 5%)
same,GI%,786-0,– (GI% < 5%)
same,GI%,T-47D,– (GI% < 5%)
same,GI%,HOP-62,– (GI% < 5%)
"2-(4-((2-(2-(5,6-Dichloro-2-(4-methoxyphenyl)-1H-benzo[d]imidazol-1-yl)acetyl)hydrazono)methyl) -2-methoxyphenoxy)acetic acid [Compound 10m]",GI%,ACHN,– (GI% < 5%)
same,GI%,OVCAR-5,– (GI% < 5%)
same,GI%,RXF 393,– (GI% < 5%)
same,GI%,CAKI-1,– (GI% < 5%)
same,GI%,HS 578T,– (GI% < 5%)
same,GI%,SR,– (GI% < 5%)
same,GI%,RPMI-8226,– (GI% < 5%)
same,GI%,UACC-62,6.42%
same,GI%,MOLT-4,– (GI% < 5%)
same,GI%,MDA-MB-435,– (GI% < 5%)
same,GI%,MDA-MB-468,– (GI% < 5%)
same,GI%,SK-OV-3,– (GI% < 5%)
same,GI%,NCI-H23,8.00%
same,GI%,KM12,– (GI% < 5%)
same,GI%,EKVX,– (GI% < 5%)
same,GI%,M14,– (GI% < 5%)
same,GI%,HCT-116,– (GI% < 5%)
same,GI%,UACC-257,– (GI% < 5%)
same,GI%,CCRF-CEM,– (GI% < 5%)
same,GI%,786-0,– (GI% < 5%)
same,GI%,T-47D,– (GI% < 5%)
same,GI%,HOP-62,– (GI% < 5%)
